Results: article PMC5045383 (Oncotarget, 2016)

Key:
[1] = molecular target: FLT3-ITD (ITD+kinase domain); assay: ADP-Glo biochemical assay; details: ATP final 50 μM
Experimental: FLT3 wt/FLT3-ITD/FLT3-D835Y cytoplasmic fragment with his tag was cloned into baculovirus expression vector pFASTHT-A. The recombinant bacmid was transfected into SF9 by Cellfectin (Invitrogen). High titer viral stocks were obtained by two rounds of amplification of the virus. The protein was expressed by infecting SF9 cells with high titer viral stocks for 48 h. Cells were harvested and re-suspended in lysis buffer (50 mM Tris pH 7.5, 150 mM NaCl, and 1 mM PMSF). The cells were lysed by ultra sonication and the cell debris was removed by ultracentrifugation. The supernatant was incubated with Ni-affinity beads (GE). The beads were then washed by lysis buffer containing 50–250 mM imidazole. The elute was loaded to superdex 75. The protein was concentrated to 1 mg/ml and aliquots were frozen and stored at −80°C. The protein was used for ADP-Glo™ kinase assay.
The reaction in each tube was started immediately by adding ATP and kept going for an hour under 37°C. After the tube cooled for 5 minutes at room temperature, 5 μL solvent reactions were carried out in a 384-well plate. […] At the end, 10 μL of kinase detection reagent was added into the well and incubated for 30 minutes to produce a luminescence signal. Luminescence signal was measured with an automated plate reader (Perkin-Elmer Envision) and each measurement was performed in triplicate.

BaF3-FLT3-ITD = assay: Anti-proliferation, BaF3 isogenic cell lines; type: cell-based
Experimental: (§1) Cells were grown in 96-well culture plates (3000/well). […] Cell proliferation was determined after 72 hours drug treatment. […] Cell viability was measured with the CellTiter–Glo assay (Promega, USA), according to the manufacturer's instructions, and luminescence was measured in a multi-label reader (Envision, PerkinElmer, USA). Data were normalized to control groups (DMSO) and represented by the mean of three independent measurements with standard error < 20%. GI50 values were calculated using Prism 5.0 (GraphPad Software, San Diego, CA).
(§2) Retroviral constructs for BaF3-FLT3 mutants were made based on the pMSCVpuro (Clontech) backbone. For TEL-FLT3 vector, the first 1 kb of human TEL gene with an artificial myristoylation sequence ([…]) was cloned into pMSCVpuro retroviral vector, followed by a 3xFLAG tag sequence and a stop codon. Then the kinase domain coding sequence of FLT3 was inserted in-frame between TEL and 3× FLAG sequences. For full-length expression vectors, the coding sequences of FLT3 variants were directly cloned in pMSCVpuro vector with a 3X FLAG tag at the C-terminal end. All mutagenesis studies were performed using the QuikChange Site-Directed Mutagenesis Kit (Stratagene) following the manufacturer's instructions. Retrovirus was packaged in HEK293T cells by transfecting FLT3-containing MSCV vectors together with two helper plasmids, virus supernatants were harvested 48 hours after transfection and filtered before infection. Then BaF3 cells were infected with harvested virus supernatants using spinoculation protocol and stable cell lines were obtained by puromycin selection for 48 hours. The IL-3 concentrations in the culture medium were gradually withdrawn until cells were able to grow in the absence of IL-3.

BaF3-FLT3-ITD-D835Y = assay: Anti-proliferation, BaF3 isogenic cell lines; type: cell-based
Experimental: as §1, §2

BaF3-TEL-FLT3-wt = assay: Anti-proliferation, BaF3 isogenic cell lines; type: cell-based
Experimental: as §1, §2

BaF3-FLT3-ITD-F691L = assay: Anti-proliferation, BaF3 isogenic cell lines; type: cell-based
Experimental: as §1, §2

BaF3-FLT3-D835Y = assay: Anti-proliferation, BaF3 isogenic cell lines; type: cell-based
Experimental: as §1, §2

MOLM13 = assay: Colony formation (clonogenic) assay; type: cell-based, human; details: MOLM13, 15 days
Experimental: (§3) In brief, 1 mL of 3% agarose combined with 1 mL MOLM-13, MOLM-14, MV4-11, PF-382, U937, HL-60 growth media was used as the bottom agar in a 6-well plate. […] Cells were maintained in a humidified 5% CO2 incubator at 37°C for 15 days. On the 15th day, the numbers of colonies in each well were counted and each measurement was performed in triplicate.

PF382 = assay: Colony formation (clonogenic) assay; type: cell-based, human; details: PF382, 15 days
Experimental: as §3

U937 = assay: Colony formation (clonogenic) assay; type: cell-based, human; details: U937, 15 days
Experimental: as §3

HL-60 = assay: Colony formation (clonogenic) assay; type: cell-based, human; details: HL-60, 15 days
Experimental: as §3

MV4-11 = assay: Colony formation (clonogenic) assay; type: cell-based, human; details: MV4-11, 15 days
Experimental: as §3

MOLM14 = assay: Colony formation (clonogenic) assay; type: cell-based, human; details: MOLM14, 15 days
Experimental: as §3

FLT3 wt = molecular target: FLT3 wt; design: method as in PMID 22037378; details: cited from earlier work
MV4-11 cells = assay: Apoptosis effect examination (PARP, Caspase-3 immunoblot); type: cell-based, human; details: MV4-11, 24 hours; more significantly at 1 μM
Text: (§4) Cells were then washed in PBS and lysed in cell lysis buffer. PARP, Caspase-3, GAPDH antibodies (Cell signaling Technology) were used for immunoblotting.

MOLM14 cells = assay: as above; type: cell-based, human; details: MOLM14, 24 hours; more pronounced at 3 μM
Text: as §4

IC50 [1]: 134 nM | GI50 (BaF3-FLT3-ITD): 88 nM | GI50 (BaF3-FLT3-ITD-D835Y): 420 nM | GI50 (BaF3-TEL-FLT3-wt): 1000 nM | GI50 (BaF3-FLT3-ITD-F691L): 430 nM | GI50 (BaF3-FLT3-D835Y): 45 nM | EC50 (MOLM13): 170 nM | EC50 (PF382): 861 nM | EC50 (U937): 505 nM | EC50 (HL-60): 387 nM | EC50 (MV4-11): 92 nM | EC50 (MOLM14): 61 nM
Structure (SMILES): Cc1[nH]nc2ccc(-c3cncc(OC[C@@H](N)Cc4ccccc4)c3)cc12 [A674563]
Kd (FLT3 wt): 540 nM | concentration at which apoptosis was induced (MV4-11 cells): 0.3 µM | concentration at which induction of apoptosis was evident (MOLM14 cells): 1 µM
